The values below are quoted from earlier work in US7994166B2, “Pyrrolidinone benzenesulfonamide derivatives as modulators of ion channels for the treatment of pain” (Vertex Pharmaceuticals Incorporated, priority 2007, dated 2011).

This data set has as its target NaV1.8 (Homo sapiens, UniProt Q9Y5Y9). To be noted: read-out: TTX IC50.

Sequence of NaV1.8 (Q9Y5Y9 whole entry, looked up): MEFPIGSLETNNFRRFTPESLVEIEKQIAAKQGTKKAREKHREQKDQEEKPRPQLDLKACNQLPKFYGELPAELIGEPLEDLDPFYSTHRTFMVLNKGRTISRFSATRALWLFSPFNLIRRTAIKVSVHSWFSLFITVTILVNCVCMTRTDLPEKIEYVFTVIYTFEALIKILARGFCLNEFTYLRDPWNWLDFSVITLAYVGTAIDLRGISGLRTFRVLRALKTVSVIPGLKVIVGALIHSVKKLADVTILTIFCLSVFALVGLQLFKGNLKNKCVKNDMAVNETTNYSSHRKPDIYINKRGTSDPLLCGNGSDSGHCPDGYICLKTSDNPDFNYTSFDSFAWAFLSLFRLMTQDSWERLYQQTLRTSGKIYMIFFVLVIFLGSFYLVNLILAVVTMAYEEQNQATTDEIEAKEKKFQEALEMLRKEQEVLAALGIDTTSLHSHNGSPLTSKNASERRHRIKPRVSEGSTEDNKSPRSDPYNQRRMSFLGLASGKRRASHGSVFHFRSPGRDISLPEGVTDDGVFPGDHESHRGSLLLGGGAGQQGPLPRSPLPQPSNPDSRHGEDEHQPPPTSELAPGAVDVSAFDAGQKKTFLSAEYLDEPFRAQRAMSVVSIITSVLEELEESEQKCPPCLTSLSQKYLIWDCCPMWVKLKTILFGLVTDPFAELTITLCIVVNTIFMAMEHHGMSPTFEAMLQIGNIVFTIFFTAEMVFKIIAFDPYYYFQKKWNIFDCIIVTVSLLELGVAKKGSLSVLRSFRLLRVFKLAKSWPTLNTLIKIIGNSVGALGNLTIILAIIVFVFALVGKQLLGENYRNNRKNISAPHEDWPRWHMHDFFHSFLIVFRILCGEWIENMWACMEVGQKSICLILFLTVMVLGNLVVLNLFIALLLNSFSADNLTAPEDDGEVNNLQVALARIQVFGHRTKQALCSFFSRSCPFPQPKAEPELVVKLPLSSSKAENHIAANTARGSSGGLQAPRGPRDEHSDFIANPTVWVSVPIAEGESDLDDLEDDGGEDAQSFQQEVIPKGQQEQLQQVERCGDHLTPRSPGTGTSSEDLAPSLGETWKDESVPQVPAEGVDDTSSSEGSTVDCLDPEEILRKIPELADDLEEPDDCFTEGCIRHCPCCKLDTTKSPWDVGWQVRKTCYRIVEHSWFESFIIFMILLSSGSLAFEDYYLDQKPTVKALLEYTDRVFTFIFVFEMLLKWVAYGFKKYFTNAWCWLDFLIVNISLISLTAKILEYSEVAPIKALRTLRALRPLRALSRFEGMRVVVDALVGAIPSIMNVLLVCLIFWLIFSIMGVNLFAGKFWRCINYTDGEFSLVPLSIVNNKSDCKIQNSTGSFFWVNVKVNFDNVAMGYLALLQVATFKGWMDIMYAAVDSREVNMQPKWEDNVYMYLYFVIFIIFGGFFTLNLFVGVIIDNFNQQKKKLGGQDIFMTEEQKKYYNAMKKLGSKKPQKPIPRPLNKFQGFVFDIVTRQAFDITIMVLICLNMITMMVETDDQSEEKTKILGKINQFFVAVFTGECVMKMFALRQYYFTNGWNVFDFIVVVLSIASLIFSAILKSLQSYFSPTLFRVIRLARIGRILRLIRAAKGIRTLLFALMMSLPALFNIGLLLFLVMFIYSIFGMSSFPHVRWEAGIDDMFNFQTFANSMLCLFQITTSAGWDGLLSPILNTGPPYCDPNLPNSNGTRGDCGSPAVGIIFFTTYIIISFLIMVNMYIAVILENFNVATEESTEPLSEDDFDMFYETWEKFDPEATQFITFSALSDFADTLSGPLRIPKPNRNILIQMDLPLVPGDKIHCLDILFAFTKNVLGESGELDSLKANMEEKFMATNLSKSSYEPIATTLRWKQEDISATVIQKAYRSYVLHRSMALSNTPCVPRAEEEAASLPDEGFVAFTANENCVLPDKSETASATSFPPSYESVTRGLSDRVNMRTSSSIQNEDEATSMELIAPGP

As to `NC1=N[C@H](O)[C@H]2[C@H]3O[C@]4(O)O[C@@H]([C@@H](O)[C@@]2(N1)[C@@H]4O)[C@]3(O)CO` [TTX, tetrodotoxin], the IC50 is over 50 µM.

As a reminder, the IC50 is the concentration at which inhibition is half-maximal.
